Common to all, as to format: biochemical
In one assay the target is JAK2 (Homo sapiens (Human), UniProt O60674). The assay can be described thus: JAK Caliper Enzyme Assay at 1 mM ATP, JAK2. The gist of the method: (§1)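 First, compound was incubated at room temperature with recombinant human kinase domain, a synthetic peptide and 1 mM ATP until 20–30% of peptide was phosphorylated. Next, EDTA stopped the reaction. Finally, electrophoretic separation quantified product, and percent effect relative to controls was plotted against concentration.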
Chain of JAK2 (O60674 849-1124): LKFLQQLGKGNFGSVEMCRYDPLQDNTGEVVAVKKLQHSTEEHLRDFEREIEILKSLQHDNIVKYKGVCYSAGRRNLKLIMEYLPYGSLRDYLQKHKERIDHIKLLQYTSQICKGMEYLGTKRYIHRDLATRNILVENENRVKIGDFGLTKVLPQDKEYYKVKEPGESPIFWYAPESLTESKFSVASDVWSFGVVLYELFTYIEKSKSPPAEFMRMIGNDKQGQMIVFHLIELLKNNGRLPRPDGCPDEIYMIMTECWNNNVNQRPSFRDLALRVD

The target of another assay is TYK2 (Homo sapiens (Human), UniProt P29597). The assay can be described thus: JAK Caliper Enzyme Assay at 1 mM ATP, TYK2. The method, boiled down: as §1
Chain of TYK2 (P29597 897-1176): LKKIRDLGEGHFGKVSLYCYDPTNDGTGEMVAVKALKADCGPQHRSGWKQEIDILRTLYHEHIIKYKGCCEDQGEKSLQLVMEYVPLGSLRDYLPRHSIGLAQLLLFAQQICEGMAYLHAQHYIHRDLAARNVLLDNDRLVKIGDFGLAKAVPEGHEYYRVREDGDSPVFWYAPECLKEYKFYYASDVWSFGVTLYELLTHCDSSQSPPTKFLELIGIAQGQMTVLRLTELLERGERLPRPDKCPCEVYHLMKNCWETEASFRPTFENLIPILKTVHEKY
The target in the next assay is JAK3 (Homo sapiens (Human), UniProt P52333). Put plainly: JAK Caliper Enzyme Assay at 1 mM ATP, JAK3. The gist of the method:
(§2)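 IC50 (nM) derived from percent conversion of fluorescently labelled peptide, measured by Caliper LabChip mobility-shift separation after EDTA stop. Each JAK family kinase domain (human, recombinant) run at 1 mM ATP and room temperature, conditions set to 20-30% product; DMSO wells define uninhibited baseline.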

The next assay concerns the target JAK1 (Homo sapiens (Human), UniProt P23458). Put plainly: JAK Caliper Enzyme Assay at 1 mM ATP, JAK1. The gist of the method:
as §2

Chain of JAK3 (P52333 822-1111): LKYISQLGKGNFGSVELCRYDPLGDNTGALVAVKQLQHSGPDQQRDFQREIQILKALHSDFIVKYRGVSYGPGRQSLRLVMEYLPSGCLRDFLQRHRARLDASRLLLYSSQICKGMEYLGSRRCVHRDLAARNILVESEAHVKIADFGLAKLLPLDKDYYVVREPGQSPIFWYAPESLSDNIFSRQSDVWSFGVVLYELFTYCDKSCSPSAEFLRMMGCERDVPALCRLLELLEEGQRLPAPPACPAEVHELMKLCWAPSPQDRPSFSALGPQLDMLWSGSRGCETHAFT
Chain of JAK1 (P23458 875-1153): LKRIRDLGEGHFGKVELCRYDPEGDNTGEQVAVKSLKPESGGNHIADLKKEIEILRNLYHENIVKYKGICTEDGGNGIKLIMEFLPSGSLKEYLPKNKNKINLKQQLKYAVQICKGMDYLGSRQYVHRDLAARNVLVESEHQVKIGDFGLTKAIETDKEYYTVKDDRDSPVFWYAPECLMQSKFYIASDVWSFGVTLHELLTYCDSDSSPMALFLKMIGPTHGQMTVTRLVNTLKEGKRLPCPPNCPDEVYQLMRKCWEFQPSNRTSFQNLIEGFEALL

As to `CCCS(=O)(=O)N1CC(CC#N)(n2ccc(-c3nc(-c4cnn(C)c4)cc4ncccc34)n2)C1` [Example 106, [3-{3-[7-(1-methyl-1H-pyrazol-4-yl)-1,6-naphthyridin-5-yl]-1H-pyrazol-1-yl}-1-(propylsulfonyl)azetidin-3-yl]acetonitrile], the IC50 was 895 nM on JAK2, 138 nM at TYK2, greater than 10000 nM on JAK3 and 5400 nM on JAK1.
For `Cn1cc(-c2cc3ncccc3c(-c3ccn(C4(CC#N)CN(S(=O)(=O)C5CC5)C4)n3)n2)cn1` [Example 107, [1-(cyclopropylsulfonyl)-3-{3-[7-(1-methyl-1H-pyrazol-4-yl)-1,6-naphthyridin-5-yl]-1H-pyrazol-1-yl}azetidin-3-yl]acetonitrile] the same measures were 243 nM, 24 nM, greater than 10000 nM and 1010 nM.
On to `Cn1cc(-c2cc3ncccc3c(-c3ccn(C4(CC#N)CN(S(N)(=O)=O)C4)n3)n2)cn1` [Example 108, 3-(cyanomethyl)-3-{3-[7-(1-methyl-1H-pyrazol-4-yl)-1,6-naphthyridin-5-yl]-1H-pyrazol-1-yl}azetidine-1-sulfonamide], for which the 50% inhibitory concentration (IC50) on JAK2 amounted to 50 nM; at TYK2, 16 nM; at JAK3, 1590 nM; at JAK1 it was 311 nM.
The corresponding values for `CNS(=O)(=O)N1CC(CC#N)(n2ccc(-c3nc(-c4cnn(C)c4)cc4ncccc34)n2)C1` [Example 109, 3-(cyanomethyl)-N-methyl-3-{3-[7-(1-methyl-1H-pyrazol-4-yl)-1,6-naphthyridin-5-yl]-1H-pyrazol-1-yl}azetidine-1-sulfonamide] are 378 nM, 68 nM, greater than 10000 nM and 2370 nM.
For `CO[C@H]1C[C@@](CC#N)(n2ccc(-c3nc(-c4cnn(C)c4)cc4ncccc34)n2)C1` [Example 110, (cis-3-methoxy-1-{3-[7-(1-methyl-1H-pyrazol-4-yl)-1,6-naphthyridin-5-yl]-1H-pyrazol-1-yl}cyclobutyl)acetonitrile] the same measures were 558 nM, 61 nM, greater than 10000 nM and 4110 nM.
The corresponding values for `CCn1cc(-c2cc3ncccc3c(-c3ccn(C4(CC#N)CN(CC(F)(F)F)C4)n3)n2)cn1` [Example 111, [3-{3-[7-(1-ethyl-1H-pyrazol-4-yl)-1,6-naphthyridin-5-yl]-1H-pyrazol-1-yl}-1-(2,2,2-trifluoroethyl)azetidin-3-yl]acetonitrile] are 139 nM, 27 nM, 9060 nM and 458 nM.
As to `CN(C)CCn1cc(-c2cc3ncccc3c(-c3ccn([C@]4(CC#N)C[C@H](C#N)C4)n3)n2)cn1` [Example 114, cis-3-(cyanomethyl)-3-[3-(7-{1-[2-(dimethylamino)ethyl]-1H-pyrazol-4-yl}-1,6-naphthyridin-5-yl)-1H-pyrazol-1-yl]cyclobutanecarbonitrile], the concentration for half-maximal inhibition (IC50) was 41 nM at JAK2, 46 nM at TYK2, 1170 nM at JAK3 and 404 nM on JAK1.
The corresponding values for `N#CCC1(n2ccc(-c3nc(-c4cnn(C5CNC5)c4)cc4ncccc34)n2)CN(CC(F)(F)F)C1` [Example 115, [3-(3-{7-[1-(azetidin-3-yl)-1H-pyrazol-4-yl]-1,6-naphthyridin-5-yl}-1H-pyrazol-1-yl)-1-(2,2,2-trifluoroethyl)azetidin-3-yl]acetonitrile] are 327 nM, 120 nM, greater than 10000 nM and 7060 nM.
For `N#CCC1(n2ccc(-c3nc(-c4cnn(C5CCNCC5)c4)cc4ncccc34)n2)CN(CC(F)(F)F)C1` [Example 116, [3-(3-{7-[1-(piperidin-4-yl)-1H-pyrazol-4-yl]-1,6-naphthyridin-5-yl}-1H-pyrazol-1-yl)-1-(2,2,2-trifluoroethyl)azetidin-3-yl]acetonitrile] the same measures were 54 nM, 41 nM, 4420 nM and 1040 nM.
On to `CN1CCC(n2cc(-c3cc4ncccc4c(-c4ccn(C5(CC#N)CN(CC(F)(F)F)C5)n4)n3)cn2)CC1` [Example 117, [3-(3-{7-[1-(1-methylpiperidin-4-yl)-1H-pyrazol-4-yl]-1,6-naphthyridin-5-yl}-1H-pyrazol-1-yl)-1-(2,2,2-trifluoroethyl)azetidin-3-yl]acetonitrile], for which the half-maximal inhibitory concentration (IC50) stood at 64 nM at JAK2, 88 nM on TYK2, 6960 nM on JAK3 and 1060 nM on JAK1.
The corresponding values for `CS(=O)(=O)N1CC(CC#N)(n2ccc(-c3nc(-c4cnn(C(F)(F)F)c4)cc4ncccc34)n2)C1` [Example 118, [1-(methylsulfonyl)-3-(3-{7-[1-(trifluoromethyl)-1H-pyrazol-4-yl]-1,6-naphthyridin-5-yl}-1H-pyrazol-1-yl)azetidin-3-yl]acetonitrile] are 4160 nM, 843 nM, greater than 10000 nM and 9060 nM.
The corresponding values for `N#CCC1(n2ccc(-c3nc(-c4cnn(C5COC5)c4)cc4ncccc34)n2)CN(CC(F)(F)F)C1` [Example 119, [3-(3-{7-[1-(oxetan-3-yl)-1H-pyrazol-4-yl]-1,6-naphthyridin-5-yl}-1H-pyrazol-1-yl)-1-(2,2,2-trifluoroethyl)azetidin-3-yl]acetonitrile] are 82 nM, 29 nM, 8380 nM and 976 nM.
The corresponding values for `CS(=O)(=O)N1CC(CC#N)(n2ccc(-c3nc(-c4cnn(C5COC5)c4)cc4ncccc34)n2)C1` [Example 121, [1-(methylsulfonyl)-3-(3-{7-[1-(oxetan-3-yl)-1H-pyrazol-4-yl]-1,6-naphthyridin-5-yl}-1H-pyrazol-1-yl)azetidin-3-yl]acetonitrile] are 101 nM, 20 nM, 9590 nM and 1750 nM.
On to `CO[C@H]1C[C@@](CC#N)(n2ccc(-c3nc(-c4cnn(C5COC5)c4)cc4ncccc34)n2)C1` [Example 122, [cis-3-methoxy-1-(3-{7-[1-(oxetan-3-yl)-1H-pyrazol-4-yl]-1,6-naphthyridin-5-yl}-1H-pyrazol-1-yl)cyclobutyl]acetonitrile], for which the 50% inhibitory concentration (IC50) at JAK2 was 391 nM; at TYK2, 110 nM; at JAK3 it was greater than 10000 nM; at JAK1, 6660 nM.
For `CS(=O)(=O)N1CC(CC#N)(n2ccc(-c3nc(-c4cnn([C@H]5CCOC5)c4)cc4ncccc34)n2)C1` [Example 123, {1-(methylsulfonyl)-3-[3-(7-{1-[(3S)-tetrahydrofuran-3-yl]-1H-pyrazol-4-yl}-1,6-naphthyridin-5-yl)-1H-pyrazol-1-yl]azetidin-3-yl}acetonitrile] the same measures were 54 nM, 21 nM, 9660 nM and 744 nM.
With `CS(=O)(=O)N1CC(CC#N)(n2ccc(-c3nc(-c4cnn([C@@H]5CCOC5)c4)cc4ncccc34)n2)C1` [Example 124, {1-(methylsulfonyl)-3-[3-(7-{1-[(3R)-tetrahydrofuran-3-yl]-1H-pyrazol-4-yl}-1,6-naphthyridin-5-yl)-1H-pyrazol-1-yl]azetidin-3-yl}acetonitrile], the concentration for half-maximal inhibition (IC50) on JAK2 was found to be 68 nM; on TYK2, 27 nM; at JAK3, 9880 nM; on JAK1, 715 nM.
The corresponding values for `CS(=O)(=O)N1CC(CC#N)(n2ccc(-c3nc(-c4cnn(CCO)c4)cc4ncccc34)n2)C1` [Example 125, [3-(3-{7-[1-(2-hydroxyethyl)-1H-pyrazol-4-yl]-1,6-naphthyridin-5-yl}-1H-pyrazol-1-yl)-1-(methylsulfonyl)azetidin-3-yl]acetonitrile] are 162 nM, 33 nM, greater than 10000 nM and 965 nM.
The corresponding values for `N#CC[C@]1(n2ccc(-c3nc(-c4cnn(CCO)c4)cc4ncccc34)n2)C[C@H](C#N)C1` [Example 126, trans-3-(cyanomethyl)-3-(3-{7-[1-(2-hydroxyethyl)-1H-pyrazol-4-yl]-1,6-naphthyridin-5-yl}-1H-pyrazol-1-yl)cyclobutanecarbonitrile] are 119 nM, 41 nM, greater than 10000 nM and 583 nM.
The corresponding values for `N#CC[C@]1(n2ccc(-c3nc(-c4cnn(CCO)c4)cc4ncccc34)n2)C[C@@H](C#N)C1` [Example 127, cis-3-(cyanomethyl)-3-(3-{7-[1-(2-hydroxyethyl)-1H-pyrazol-4-yl]-1,6-naphthyridin-5-yl}-1H-pyrazol-1-yl)cyclobutanecarbonitrile] are 20 nM, 17 nM, 1050 nM and 64 nM.
In the case of `CO[C@H]1C[C@@](CC#N)(n2ccc(-c3nc(-c4cnn(CCO)c4)cc4ncccc34)n2)C1` [Example 128, [cis-1-(3-{7-[1-(2-hydroxyethyl)-1H-pyrazol-4-yl]-1,6-naphthyridin-5-yl}-1H-pyrazol-1-yl)-3-methoxycyclobutyl]acetonitrile], the IC50 is 620 nM on JAK2, 115 nM on TYK2, greater than 10000 nM on JAK3 and 3530 nM at JAK1.
